Broadly, the melting point is the temperature of the solid-liquid transition.

`CCOC(=O)C1=C(C)NC(N=CN(C)C)=C(C(=O)OCC)C1c1cccc(OC)c1` (stereo unspecified) yielded a melting point of 136 °C.
As for `CC(=O)Oc1c(C=C(C#N)C#N)n(C(C)=O)c2ccccc12`, the figure is 250 to 252 °C; as for `COc1ccc(-c2cc(C(N)=O)c(=O)n(CC=Cc3ccccc3)n2)cc1`, 184 to 186 °C.
As for `CCCCCC1=CN(N)C2=NC(O)N(CCCNC(C)=O)C2=C1` (stereo unspecified), the figure is 189 to 191 °C; as for `N#Cc1cnc2cnc(F)cc2c1Nc1ccc(Cl)cc1Cl`, 206 to 208 °C.
Compound `COc1ccc(-c2c(CO)[nH]c3cc(OC)c(OC)cc23)cc1` gave a melting point of 169 to 170 °C.
As to `c1ccc2c(CN3CCN(Cc4ccc5c(c4)OCO5)CC3)n[nH]c2c1`, the melting point fell in the range of 175 to 176 °C.
The result for `COC(=O)c1ccc2oc3c(c(=O)c2c1)CCC3=Cc1ccccn1` reads 250 to 252 °C; that for `O=C1CCN(C(=O)c2ccc(Cl)cc2)CC1`, 61 to 63 °C; that for `CNS(=O)(=O)C[C@H]1c2cc(OCCCC(F)(F)F)ccc2OC(C)(C)[C@@H]1O`, 178 to 179 °C.
The result for `CSc1ccc(/C=C2/C(C)=C(CC=NO)c3cc(F)ccc32)cc1` reads 146 to 150 °C; that for `COc1ccc(-c2cc(=O)n(Cc3c(Cl)cccc3Cl)nc2-c2ccc(OC)cc2)cc1`, 144 °C; that for `CCCN1C(=O)N2CC(Cc3ccccc3)N=C2c2[nH]c(C(C)OCC)nc21` (stereo unspecified), 165 to 170 °C.
The result for `Cc1n[nH]c2cc(-c3nn(Cc4oc5ccc(F)cc5c(=O)c4-c4ccccc4)c4ncnc(N)c34)ccc12` reads 277 to 279 °C; that for `CCCCN(CC1Cc2cc(Cl)cc(Cl)c2O1)C(=O)n1ccnc1` (stereo unspecified), 98 to 100 °C; that for `O=C(NCCc1cccc2ccc(OC3CCCCC3)cc12)C1CC1`, 153 to 155 °C.
In turn, `O=C(NCCO)/C(=C/c1ccc(OC(F)(F)F)cc1)NC(=O)c1ccc(OCCC(F)(F)F)cc1` gave a melting point of 159 to 160 °C.
As for `CCCCOC(=O)C(COC(C)(C)C)NC(=O)c1ccc2c(Cl)cnc(NC(=N)N)c2c1` (racemic), the figure is 215 to 219 °C; as for `CS(=O)(=O)c1ccc(-c2ccccc2-c2ccc(C(F)(F)F)cc2)cc1`, 173 to 174 °C.
The result for `COc1ccc(Oc2cccc(C)c2)c(NS(C)(=O)=O)c1` reads 87 to 88 °C; that for `COC(=O)NC1CCc2sc(Cl)c(C(=O)CCC(=O)O)c2C1` (stereo unspecified), 178 to 179 °C; that for `CN(C)C=CC(=O)C(c1ccccc1)c1ccccc1`, 93 to 94 °C.
The result for `CC(C)Oc1ccc(CCCCC2SC(=O)NC2=O)cc1` (stereo unspecified) reads 72 to 73 °C; that for `NC1=NN(c2ccc(Cl)cn2)C(c2ccccc2)C1` (stereo unspecified), 142 to 147 °C; that for `O=C(O)c1ccccc1OCCN1CCC(c2c[nH]c3ccccc23)CC1`, 230 °C.
The compound `CCC(C)(C)NCc1nc2sc3c(c2c(-c2ccc(OC)c(OC)c2)c1Cl)CCN(Cc1ccccc1)C3` yielded a melting point of 128 to 129 °C.
As for `CC[C@@H](c1ccccc1)N(Cc1ccc(C(=O)OC)cc1)S(=O)(=O)c1ccc(Cl)cc1`, the figure is 108 to 110 °C.
Consider `N#CCCNC(=O)c1cccc(-c2cccc3nn(Cc4cc(F)cc(Cl)c4)cc23)c1`, for which the melting point is 207 to 208 °C.
The result for `O=C(O)CN1CC(=O)N(Cc2cccc([N+](=O)[O-])c2)C1=O` reads 165 to 166 °C; that for `CC(=O)OCCn1nc(-c2cc(C(C)(C)C)c(O)c(C(C)(C)C)c2)c2ccc(C(C)C)nc21`, 121 to 122 °C; that for `CCOC(=O)c1c(-c2ccccc2)c2c3ccccc3cnn2c1C(C)C`, 141 to 142 °C.
As for `O=S(=O)(CC(F)(F)F)Oc1cccc(OS(=O)(=O)CC(F)(F)F)c1OS(=O)(=O)CC(F)(F)F`, the figure is 73.5 to 75 °C; as for `CCn1nc2oc(C=CC(N)=O)c(C)c2c1C`, 258 to 260 °C; as for `O=C(CCCCl)c1ccc2cc(O)c(O)cc2c1`, 129 to 135 °C.
As for `COC(=O)c1c(C)ccc(C(O)=S)c1C`, the figure is 178 °C; as for `CC(c1ccc(Cl)cc1)N1CCNC1=NC#N` (stereo unspecified), 133 °C.
As to `Cc1cccc(Nc2cc(Cl)nc(SCC(=O)NC3CCCCC3)n2)c1C`, the melting point fell in the range of 156 to 158 °C.
The result for `O=Cc1c[nH]c2c1ccc1c3cccc(F)c3[nH]c12` reads over 250 °C.
As for `COCOc1ccc(Cl)cc1-c1cc(-c2cccc([N+](=O)[O-])c2)c(C#N)c(NC(=O)c2cccs2)n1`, the figure is 161 to 162 °C; as for `COC(=O)C(=O)O[C@H]1C[C@@H](C(=O)OC)[C@]2(C)CC[C@H]3C(=O)O[C@H](c4ccoc4)C[C@]3(C)[C@H]2C1=O`, 241 to 244 °C; as for `O=C(O)CCCCc1nn(-c2cccc(C(F)(F)F)c2)c2c1CCCC2`, 105 °C.
As for `CC1=C(c2cccc(C(F)(F)F)c2)n2ncc(C#N)c2N(C(=O)CN2CCN(c3ccccn3)CC2)C1`, the figure is 132 to 134 °C.
Turning to `CCOP(=O)(OCC)c1cc2cc(S(=O)(=O)Cl)c(Cl)cc2[nH]c1=O`, the melting point was 190 to 200 °C.
`CCC1(CCCCN2CCc3sccc3C2)C(=O)Nc2ccc(C)cc21` (stereo unspecified) registered a melting point of 138 to 140 °C.
For `OC(c1ccccc1)(c1ccccc1)C(F)(F)C(F)(F)F`, the melting point was in the range of 82 to 83 °C.
The result for `COc1ccc(C(=O)Nc2ccc(F)cc2)cc1NS(=O)(=O)c1cccc([N+](=O)[O-])c1` reads 221 to 240 °C.
As for `CCOC(=O)c1c(Nc2ccccc2[N+](=O)[O-])c(C)cn1C`, the figure is 114 °C; as for `CC(=O)NCCc1nc(-c2csc(N=C(N)N)n2)cs1`, 226 to 227 °C.
The result for `O=C1CCCC(c2ccccc2)N1c1ccccc1` (stereo unspecified) reads 123 to 125 °C; that for `O=C(NCCCN1CCN(c2ccc(F)cc2OCC(F)(F)F)CC1)c1csc2c(=O)cc(-c3ccccc3)oc12`, 189 to 191 °C; that for `O=C1CCC(N2Cc3c(OCc4ccc5ncc(CN6CCOCC6)n5c4)cccc3C2=O)C(=O)N1` (stereo unspecified), 170 to 172 °C.
As for `CC(C)(C)[Si](C)(C)Oc1ccc(S(N)(=O)=O)cc1`, the melting point lay in the range of 117 to 118 °C.
As for `O=C1N(CC2CCCO2)c2cc(F)ccc2C12COc1cc3c(cc12)CCO3` (stereo unspecified), the figure is 137 to 139 °C; as for `CCCc1nc(C)c(C(=O)OCC)n1Cc1ccc2oc(-c3ccccc3NS(=O)(=O)C(F)(F)F)c(Br)c2c1`, 123 to 125 °C.
As for `CC(C)C[C@@H](C(=O)N1CCN(C(c2ccc(F)cc2)c2ccc(F)cc2)CC1)N(C)C1CCOCC1`, the figure is 56 to 65 °C; as for `COC(=O)C=C[C@@H](Cc1cn(CC=Cc2ccccc2)c2ccccc12)NC(=O)OC(C)(C)C`, 119 to 121 °C.
As for `Nc1ccc(Nc2c(CC3CC4C=CC3C4)cc(C(=O)O)cc2S(N)(=O)=O)cc1` (stereo unspecified), the figure is 245 °C; as for `COCc1cc2c(s1)CCCc1cc(=O)n(-c3ccc(C)cc3)nc1-2`, 109 to 110 °C; as for `COCCOCC(=O)N(c1c(C)c(C)cc2ccccc12)C1CCOC1=O` (stereo unspecified), 142 to 146 °C.
`C=CCC12CC(c3ccccc31)c1ccccc12` yielded a melting point of 42 to 43 °C.
`O=C(O)Cc1ccc2c3c(cccc13)C(c1ccccc1)C2` (stereo unspecified) displayed a melting point of 200 °C.

For the origin of these results see a melting point compilation (Tetko et al.; mined from patent text by program, amines drawn as free bases though some values may be those of a salt).
